# Test results taken from US20240317777A1, “NOVEL MACROCYCLIC AMINOPYRAZOLE COMPOUNDS AS CDK2 INHIBITORS” (Accutar Biotechnology Inc., priority 2023, published 2024).
# Where two headings read alike, the source gives them in different places.
# How the values were obtained:
# [1] = other bond
# [2] = target: CDK9-CYCLIN T1 (Homo sapiens, UniProt P50750); assay: CDK protein kinase inhibition by ADP-Glo assay, CDK9-CYCLIN T1; type: biochemical; conditions: ADP-Glo, 1000 μM ATP, read-out: CDK9-CYCLINT1, IC50
# CDK9-CYCLIN T1, sequence (P50750 whole entry): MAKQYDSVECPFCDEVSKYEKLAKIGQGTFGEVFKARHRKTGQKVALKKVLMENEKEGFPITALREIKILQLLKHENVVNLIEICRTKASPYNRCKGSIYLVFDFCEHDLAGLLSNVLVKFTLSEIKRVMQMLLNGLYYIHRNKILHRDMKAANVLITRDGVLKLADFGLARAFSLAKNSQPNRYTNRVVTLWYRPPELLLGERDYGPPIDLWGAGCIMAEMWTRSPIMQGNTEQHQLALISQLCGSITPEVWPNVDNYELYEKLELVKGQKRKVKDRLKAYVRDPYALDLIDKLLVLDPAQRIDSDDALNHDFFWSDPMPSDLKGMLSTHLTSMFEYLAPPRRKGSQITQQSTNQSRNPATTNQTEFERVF
# CDK9-CYCLIN T1, sequence (O60563 whole entry partner): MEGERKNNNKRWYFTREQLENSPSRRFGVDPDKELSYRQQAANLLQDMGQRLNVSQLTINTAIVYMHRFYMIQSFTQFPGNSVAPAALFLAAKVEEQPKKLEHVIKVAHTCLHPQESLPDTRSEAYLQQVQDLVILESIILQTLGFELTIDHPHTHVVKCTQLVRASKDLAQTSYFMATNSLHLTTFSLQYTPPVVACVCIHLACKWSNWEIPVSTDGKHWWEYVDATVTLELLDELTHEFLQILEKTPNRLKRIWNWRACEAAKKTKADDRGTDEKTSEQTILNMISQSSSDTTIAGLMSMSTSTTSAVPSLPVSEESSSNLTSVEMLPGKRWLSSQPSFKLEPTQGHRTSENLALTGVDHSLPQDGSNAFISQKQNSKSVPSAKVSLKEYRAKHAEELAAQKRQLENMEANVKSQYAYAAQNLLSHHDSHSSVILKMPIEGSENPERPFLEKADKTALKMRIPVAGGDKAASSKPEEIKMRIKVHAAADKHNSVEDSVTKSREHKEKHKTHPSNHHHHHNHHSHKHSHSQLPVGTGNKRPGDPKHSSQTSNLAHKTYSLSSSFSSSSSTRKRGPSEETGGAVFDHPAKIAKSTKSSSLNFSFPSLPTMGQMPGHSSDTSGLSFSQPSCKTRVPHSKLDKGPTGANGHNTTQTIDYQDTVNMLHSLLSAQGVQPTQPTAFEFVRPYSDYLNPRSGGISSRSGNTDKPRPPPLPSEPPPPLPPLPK
# Procedure, shortened: (§1)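 Enzyme reactions contain 1000 μM ATP and 5 mM MgCl2 in HEPES pH 7.5 with BSA, Triton X-100, DTT, orthovanadate and beta-glycerophosphate. They proceed at 22° C before ADP-Glo luminescent detection of ADP produced.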
# [3] = target: CDK1-CYCLIN B (Homo sapiens, UniProt P06493); assay: CDK protein kinase inhibition by ADP-Glo assay, CDK1-CYCLIN B; type: biochemical; conditions: ADP-Glo, 1000 μM ATP, read-out: CDK1-CYCLINB, IC50
# CDK1-CYCLIN B, sequence (P06493 whole entry): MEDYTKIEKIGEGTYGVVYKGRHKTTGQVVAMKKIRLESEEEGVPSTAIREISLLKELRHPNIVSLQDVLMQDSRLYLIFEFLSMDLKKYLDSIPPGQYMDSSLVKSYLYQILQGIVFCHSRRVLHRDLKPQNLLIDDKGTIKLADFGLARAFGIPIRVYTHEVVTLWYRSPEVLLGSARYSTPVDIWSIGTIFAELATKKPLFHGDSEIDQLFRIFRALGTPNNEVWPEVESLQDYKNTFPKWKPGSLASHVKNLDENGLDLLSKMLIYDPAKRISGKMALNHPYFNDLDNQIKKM
# CDK1-CYCLIN B, sequence (P14635 whole entry partner): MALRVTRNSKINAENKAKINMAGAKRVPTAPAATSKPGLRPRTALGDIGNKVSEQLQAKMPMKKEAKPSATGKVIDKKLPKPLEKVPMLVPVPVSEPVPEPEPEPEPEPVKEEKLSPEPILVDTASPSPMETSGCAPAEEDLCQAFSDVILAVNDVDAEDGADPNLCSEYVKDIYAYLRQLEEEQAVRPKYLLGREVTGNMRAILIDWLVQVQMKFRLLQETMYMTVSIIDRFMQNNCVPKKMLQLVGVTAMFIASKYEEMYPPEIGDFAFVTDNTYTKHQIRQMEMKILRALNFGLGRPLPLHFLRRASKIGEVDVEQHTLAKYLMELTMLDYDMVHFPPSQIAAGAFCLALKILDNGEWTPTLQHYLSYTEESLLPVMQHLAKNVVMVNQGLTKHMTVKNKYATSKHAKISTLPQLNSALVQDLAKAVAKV
# Procedure, shortened: as §1
# [4] = system: CCNE1-normal SKOV3 cells; assay: Cell growth inhibition of CCNE1-normal SKOV3 cells (CellTiter-Glo); type: cell-based; conditions: Homo sapiens, SK-OV-3, 144 h, 6 days
# Procedure, shortened: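 Growth was measured by CellTiter-Glo luminescence after 6 days' compound exposure at 37 °C. Cells were plated one day before dosing at 1000 per well in medium with 10% FBS, and compounds were diluted from DMSO stocks.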
# [5] = target: CDK4-CYCLIN D1 (Homo sapiens, UniProt P11802); assay: CDK protein kinase inhibition by ADP-Glo assay, CDK4-CYCLIN D1; type: biochemical; conditions: ADP-Glo, 1000 μM ATP, read-out: CDK4-CYCLIND1, IC50
# CDK4-CYCLIN D1, sequence (P11802 whole entry): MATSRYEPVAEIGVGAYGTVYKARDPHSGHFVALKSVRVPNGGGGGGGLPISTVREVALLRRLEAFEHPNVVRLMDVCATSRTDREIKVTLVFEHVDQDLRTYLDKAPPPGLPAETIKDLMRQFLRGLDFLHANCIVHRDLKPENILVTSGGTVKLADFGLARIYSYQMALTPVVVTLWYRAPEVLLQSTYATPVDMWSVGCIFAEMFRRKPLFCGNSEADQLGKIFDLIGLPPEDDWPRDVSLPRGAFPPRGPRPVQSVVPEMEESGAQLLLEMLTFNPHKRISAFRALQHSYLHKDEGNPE
# CDK4-CYCLIN D1, sequence (P24385 whole entry partner): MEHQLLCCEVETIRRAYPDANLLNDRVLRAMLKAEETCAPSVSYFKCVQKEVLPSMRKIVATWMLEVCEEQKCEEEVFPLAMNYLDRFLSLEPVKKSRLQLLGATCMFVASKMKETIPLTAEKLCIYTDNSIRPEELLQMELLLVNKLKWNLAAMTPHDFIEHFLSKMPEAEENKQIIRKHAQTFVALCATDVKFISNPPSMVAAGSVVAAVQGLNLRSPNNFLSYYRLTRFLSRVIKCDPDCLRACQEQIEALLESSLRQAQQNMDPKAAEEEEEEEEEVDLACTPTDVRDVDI
# Procedure, shortened: as §1
# [6] = target: CDK2-CYCLIN E1 (Homo sapiens, UniProt P24941); assay: CDK protein kinase inhibition by ADP-Glo assay, CDK2-CYCLIN E1; type: biochemical; conditions: ADP-Glo, 1000 μM ATP, read-out: CDK2-CYCLINE, IC50
# Procedure, shortened: as §1
# [7] = target: CDK6-CYCLIN D3 (Homo sapiens, UniProt Q00534); assay: CDK protein kinase inhibition by ADP-Glo assay, CDK6-CYCLIN D3; type: biochemical; conditions: ADP-Glo, 1000 μM ATP, read-out: CDK6-CYCLIND3, IC50
# CDK6-CYCLIN D3, sequence (Q00534 whole entry): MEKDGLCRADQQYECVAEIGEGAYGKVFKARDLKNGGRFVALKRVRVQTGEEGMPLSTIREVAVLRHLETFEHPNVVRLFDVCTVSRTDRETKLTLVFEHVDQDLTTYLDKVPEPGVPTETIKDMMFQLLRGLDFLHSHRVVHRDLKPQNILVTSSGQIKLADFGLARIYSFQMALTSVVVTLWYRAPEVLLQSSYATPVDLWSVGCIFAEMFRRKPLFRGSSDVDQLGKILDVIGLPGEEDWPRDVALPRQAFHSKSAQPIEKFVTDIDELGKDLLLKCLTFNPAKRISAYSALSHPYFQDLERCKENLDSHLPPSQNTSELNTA
# CDK6-CYCLIN D3, sequence (P30281 whole entry partner): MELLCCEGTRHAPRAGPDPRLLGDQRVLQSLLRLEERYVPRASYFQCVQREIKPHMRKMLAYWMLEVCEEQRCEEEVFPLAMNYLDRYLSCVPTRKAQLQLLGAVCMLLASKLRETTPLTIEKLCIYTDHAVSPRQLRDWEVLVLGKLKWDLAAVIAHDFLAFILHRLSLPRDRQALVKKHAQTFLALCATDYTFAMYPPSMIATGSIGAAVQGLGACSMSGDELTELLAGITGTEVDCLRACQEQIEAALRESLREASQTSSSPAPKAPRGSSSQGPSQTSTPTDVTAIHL
# Procedure, shortened: as §1
# [8] = system: Phospho-Rb (Ser807/811) in OVCAR3 cells; assay: Phospho-Rb expression inhibition in OVCAR3 cells quantified by In Cell Western; type: cell-based; conditions: Homo sapiens, OVCAR-3, 24 hours, read-out: OVCAR-3 pRb IC50
# Procedure, shortened: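 In-cell western: after 24 h compound exposure at 37° C, fixed OVCAR3 cells co-stained for pRb Ser807/811 (800 nm channel) and total Rb (680 nm channel), imaged by LI-COR Odyssey.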
# [9] = system: CCNE1-amplified OVCAR3 cells; assay: Cell growth inhibition of CCNE1-amplified OVCAR3 cells (CellTiter-Glo); type: cell-based; conditions: Homo sapiens, OVCAR-3, 144 h, 6 days
# Procedure, shortened: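 Growth read-out was CellTiter-Glo luminescence, taken after 10 min at room temperature at the end of a 6-day compound exposure at 37 °C. Compounds were diluted from DMSO stocks across various concentrations.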
compound,measurement,setting,value
CC(C)(C)n1nc2cc1Nc1cc(nc(C(F)F)c1)CCCCCNC(=O)O[C@@H]1CC[C@H]2C1,"ring closure, yield of all isomers","[1]; from CC(C)(C)n1nc([C@H]2CC[C@@H](OC(=O)Oc3ccc([N+](=O)[O-])cc3)C2)cc1Nc1cc(CCCCCN)nc(C(F)F)c1, DIPEA, THF, 3.27 mM, 30.0 °C, 12.0 h",44.1%
CC(C)(C)n1nc2cc1Nc1cc(nc(C(F)F)c1)OCCCCNC(=O)O[C@@H]1CC[C@H]2C1,"ring closure, yield of all isomers","[1]; from CC(C)(C)n1nc([C@H]2CC[C@@H](OC(=O)Oc3ccc([N+](=O)[O-])cc3)C2)cc1Nc1cc(OCCCCN)nc(C(F)F)c1, DIEA, THF, 1.11 mM, 25.0 °C, 12.0 h",65%
CC(C)(C)n1nc2cc1Nc1ccnc(c1)C(F)(F)C[C@H]1C[C@@H](C1)NC(=O)O[C@@H]1CC[C@H]2C1,"ring closure, yield of all isomers","[1]; from CC(C)(C)n1nc([C@H]2CC[C@@H](OC(=O)Oc3ccc([N+](=O)[O-])cc3)C2)cc1Nc1ccnc(C(F)(F)C[C@H]2C[C@H](N)C2)c1, DIEA, THF, 3.33 mM, 25.0 °C, 12.0 h",99.9%
CC(C)(C)n1nc2cc1Nc1ccnc(c1)CCCCCNC(=O)O[C@@H]1CC[C@H]2C1,"ring closure, yield of all isomers","[1]; from CC(C)(C)n1nc([C@H]2CC[C@@H](OC(=O)Oc3ccc([N+](=O)[O-])cc3)C2)cc1Nc1ccnc(CCCCCN)c1, DIPEA, THF, 2.0 mM, 30.0 °C, 3.0 h",85%
CC(C)(C)n1nc2cc1Nc1ccnc(c1)OC[C@H]1C[C@@H](C1)NC(=O)O[C@@H]1CC[C@H]2C1,"ring closure, yield of all isomers","[1]; from CC(C)(C)n1nc([C@H]2CC[C@@H](OC(=O)Oc3ccc([N+](=O)[O-])cc3)C2)cc1Nc1ccnc(OC[C@H]2C[C@H](N)C2)c1, DIEA, THF, 1.21 mM, 70.0 °C, 12.0 h",96.7%
CC(C)(C)n1nc2cc1Nc1ccnc(c1)OC[C@H]1C[C@@H](C1)NC(=O)O[C@H]1C[C@@H]2C[C@H]1F,"ring closure, yield of all isomers","[1]; from CC(C)(C)n1nc([C@H]2C[C@@H](F)[C@@H](OC(=O)Oc3ccc([N+](=O)[O-])cc3)C2)cc1Nc1ccnc(OC[C@H]2C[C@H](N)C2)c1, DIEA, THF, 1.7 mM, 60.0 °C, 12.0 h",37%
CC(C)(C)n1nc2cc1Nc1cncc(c1)OCCCCNC(=O)O[C@@H]1CC[C@H]2C1,"ring closure, yield of all isomers","[1]; from CC(C)(C)n1nc([C@H]2CC[C@@H](OC(=O)Oc3ccc([N+](=O)[O-])cc3)C2)cc1Nc1cncc(OCCCCN)c1, DIPEA, THF, 2.01 mM, 25.0 °C, 12.0 h, 2 steps",49.3%
CC(C)(C)n1nc2cc1Nc1cncc(n1)OC[C@H]1C[C@@H](C1)NC(=O)O[C@@H]1CC[C@H]2C1,"ring closure, yield of all isomers","[1]; from CC(C)(C)n1nc([C@H]2CC[C@@H](OC(=O)Oc3ccc([N+](=O)[O-])cc3)C2)cc1Nc1cncc(OC[C@H]2C[C@H](N)C2)n1, DIEA, DMSO, 2.3 mM, 100.0 °C, 12.0 h",38%
CC1(C)CCCOc2cc(ccn2)Nc2cc(nn2C(C)(C)C)[C@H]2CC[C@H](C2)OC(=O)N1,"ring closure, yield of all isomers","[1]; from CC(C)(N)CCCOc1cc(Nc2cc([C@H]3CC[C@@H](OC(=O)Oc4ccc([N+](=O)[O-])cc4)C3)nn2C(C)(C)C)ccn1, DIPEA, DMAP, THF, 1.82 mM, 50.0 °C, 39.0 h",88.8%
CC1CC23CC(C2)(C3)NC(=O)O[C@@H]2CC[C@@H](C2)c2cc(n(C(C)(C)C)n2)Nc2cc(nc(C(F)F)c2)O1 (stereo partly drawn),"ring closure, yield of all isomers","[1]; from CC(CC12CC(N)(C1)C2)Oc1cc(Nc2cc([C@H]3CC[C@@H](OC(=O)Oc4ccc([N+](=O)[O-])cc4)C3)nn2C(C)(C)C)cc(C(F)F)n1, DIEA, THF, 9.15 mM, 80.0 °C, 2.0 h",84.7%
CC1CCCOc2cc(ccn2)Nc2cc(nn2C(C)(C)C)[C@H]2CC[C@H](C2)OC(=O)N1 (stereo partly drawn),"ring closure, yield of all isomers","[1]; from CC(N)CCCOc1cc(Nc2cc([C@H]3CC[C@@H](OC(=O)Oc4ccc([N+](=O)[O-])cc4)C3)nn2C(C)(C)C)ccn1, DIPEA, THF, 2.06 mM, 30.0 °C, 24.0 h",98.5%
CC1OCCCNC(=O)O[C@@H]2CC[C@@H](C2)c2cc(n(C(C)(C)C)n2)Nc2ccnc1c2 (stereo partly drawn),"ring closure, yield of all isomers","[1]; from CC(OCCCN)c1cc(Nc2cc([C@H]3CC[C@@H](OC(=O)Oc4ccc([N+](=O)[O-])cc4)C3)nn2C(C)(C)C)ccn1, DIEA, THF, 6.34 mM, 100.0 °C, 3.0 h",87.5%
C[C@@H]1CC/C=C/c2cc(ccn2)Nc2cc(nn2C(C)(C)C)[C@H]2CC[C@H](C2)OC(=O)N1,"ring closure, yield of all isomers","[1]; from C[C@@H](N)CC/C=C/c1cc(Nc2cc([C@H]3CC[C@@H](OC(=O)Oc4ccc([N+](=O)[O-])cc4)C3)nn2C(C)(C)C)ccn1, DIEA, THF, 1.46 mM, 70.0 °C, 12.0 h",98.6%
C[C@@H]1CCCCc2cc(ccn2)Nc2cc(nn2C(C)(C)C)[C@H]2CC[C@H](C2)OC(=O)N1,"ring closure, yield of all isomers","[1]; from C[C@@H](N)CCCCc1cc(Nc2cc([C@H]3CC[C@@H](OC(=O)Oc4ccc([N+](=O)[O-])cc4)C3)nn2C(C)(C)C)ccn1, DIPEA, THF, 1.42 mM, 100.0 °C, 3.0 h",99.5%
O=C1N[C@H]2C[C@H](CCc3cc(ccn3)Nc3cc(n[nH]3)[C@H]3CC[C@H](C3)O1)C2 [compound 140],IC50,[2]; Table 19,10 to 50 nM
same,IC50,[3]; Table 19,10 to 50 nM
same,IC50,[4],50 to 250 nM
same,IC50,[5]; Table 19,10 to 50 nM
same,IC50,[6]; Table 19,≤ 10 nM
same,IC50,[7]; Table 19,50 to 100 nM
same,IC50,[8],2 to 10 nM
same,IC50,[9],10 to 50 nM
C[C@@H]1Oc2cc(ccn2)Nc2cc(n[nH]2)[C@H]2CC[C@H](C2)OC(=O)N[C@H]2C[C@H]1C2 [compound 146],IC50,[2]; Table 21,> 500 nM
same,IC50,[3]; Table 21,100 to 500 nM
same,IC50,[4],250 to 1250 nM
same,IC50,[5]; Table 21,> 500 nM
same,IC50,[6]; Table 21,≤ 10 nM
same,IC50,[7]; Table 21,100 to 500 nM
same,IC50,[8],10 to 50 nM
same,IC50,[9],10 to 50 nM
C[C@H]1CCO[C@H](C)c2cc(ccn2)Nc2cc(n[nH]2)[C@H]2CC[C@H](C2)OC(=O)N1 [compound 158],IC50,[2]; Table 23,> 500 nM
same,IC50,[3]; Table 23,100 to 500 nM
same,IC50,[4],250 to 1250 nM
same,IC50,[5]; Table 23,100 to 500 nM
same,IC50,[6]; Table 23,10 to 50 nM
same,IC50,[7]; Table 23,> 500 nM
same,IC50,[8],10 to 50 nM
same,IC50,[9],10 to 50 nM
C[C@@H]1OCC[C@H](C)NC(=O)O[C@@H]2CC[C@@H](C2)c2cc([nH]n2)Nc2ccnc1c2 [compound 159],IC50,[2]; Table 23,50 to 100 nM
same,IC50,[3]; Table 23,10 to 50 nM
same,IC50,[4],50 to 250 nM
same,IC50,[5]; Table 23,10 to 50 nM
same,IC50,[6]; Table 23,≤ 10 nM
same,IC50,[7]; Table 23,50 to 100 nM
same,IC50,[8],2 to 10 nM
same,IC50,[9],2 to 10 nM
C[C@H]1CC[C@H](C)Oc2cc(ccn2)Nc2cc(n[nH]2)[C@H]2CC[C@H](C2)OC(=O)N1 [compound 162],IC50,[2]; Table 21,100 to 500 nM
same,IC50,[3]; Table 21,10 to 50 nM
same,IC50,[4],250 to 1250 nM
same,IC50,[5]; Table 21,100 to 500 nM
same,IC50,[6]; Table 21,≤ 10 nM
same,IC50,[7]; Table 21,100 to 500 nM
same,IC50,[8],2 to 10 nM
same,IC50,[9],10 to 50 nM
C[C@@H]1CC[C@H](C)Oc2cc(ccn2)Nc2cc(n[nH]2)[C@H]2CC[C@H](C2)OC(=O)N1 [compound 163],IC50,[2]; Table 23,100 to 500 nM
same,IC50,[3]; Table 23,50 to 100 nM
same,IC50,[4],250 to 1250 nM
same,IC50,[5]; Table 23,100 to 500 nM
same,IC50,[6]; Table 23,≤ 10 nM
same,IC50,[7]; Table 23,100 to 500 nM
same,IC50,[8],10 to 50 nM
same,IC50,[9],10 to 50 nM
C[C@@H]1NC(=O)O[C@@H]2CC[C@@H](C2)c2cc([nH]n2)Nc2ccnc(c2)COCC1(F)F [compound 164],IC50,[2]; Table 31,≤ 10 nM
same,IC50,[3]; Table 31,≤ 10 nM
same,IC50,[4],10 to 50 nM
same,IC50,[5]; Table 31,≤ 10 nM
same,IC50,[6]; Table 31,≤ 10 nM
same,IC50,[7]; Table 31,10 to 50 nM
same,IC50,[8],≤ 2 nM
same,IC50,[9],≤ 2 nM
C[C@H]1NC(=O)O[C@@H]2CC[C@@H](C2)c2cc([nH]n2)Nc2ccnc(c2)COCC1(F)F [compound 165],IC50,[2]; Table 31,50 to 100 nM
same,IC50,[3]; Table 31,10 to 50 nM
same,IC50,[4],50 to 250 nM
same,IC50,[5]; Table 31,10 to 50 nM
same,IC50,[6]; Table 31,10 to 50 nM
same,IC50,[7]; Table 31,10 to 50 nM
same,IC50,[8],2 to 10 nM
same,IC50,[9],10 to 50 nM
